Source: paper PMC4676015, “Variant fatty acid-like molecules Conjugation, novel approaches for extending the stability of therapeutic peptides” (Scientific Reports, 2015)

Experiments:
DPP IV enzyme = biological target: T1, DPP IV enzyme (Homo sapiens, UniProt P27487); assay: Stability against DPP IV proteolysis with or without HSA; assay type: in vitro ADME
T1 construct: purchased Sigma-Aldrich

[1] = Blood retention time measurement; details: 500 μg/kg s.c., Wistar rats, n = 5; 0.5-96 h; GLP-1 (7–37) ELISA
Wistar rats [2] = assay: Toxicity study of compound 24 in Wistar rats (blood biochemistry, haematology); assay type: in vivo; details: Wistar rats and Kunming mice, GLP guideline of China
Protocol: Wistar rats (n = 8) and Kunming mice (n = 30) were employed in this study to investigate the acute toxicity of compound 24. Compound 24 was intraperitoneally administered with three doses of 5, 15 and 50 mg/kg/2 days for 30 days. Controls received a similar volume of sodium dihydrogen phosphate. At the end of the experimental period, overnight fasted animals were sacrificed by cervical decapitation under light ether anesthesia and blood was collected, serum was separated by centrifuging at 3,000 rpm for 10 min. The serum was used for the assay of the biochemical parameters using Chemistry Analyzer […] (Vital, Netherlands).

GLP-1 receptor (GLP-1R) = biological target: T2, GLP-1 receptor (GLP-1R) (Rattus norvegicus, UniProt P32301); assay: GLP-1 receptor binding assay (cellular ELISA)
T2 construct: endogenous in cells; host or cells: rat INS-1 cells
T2 sequence (P32301 22-463): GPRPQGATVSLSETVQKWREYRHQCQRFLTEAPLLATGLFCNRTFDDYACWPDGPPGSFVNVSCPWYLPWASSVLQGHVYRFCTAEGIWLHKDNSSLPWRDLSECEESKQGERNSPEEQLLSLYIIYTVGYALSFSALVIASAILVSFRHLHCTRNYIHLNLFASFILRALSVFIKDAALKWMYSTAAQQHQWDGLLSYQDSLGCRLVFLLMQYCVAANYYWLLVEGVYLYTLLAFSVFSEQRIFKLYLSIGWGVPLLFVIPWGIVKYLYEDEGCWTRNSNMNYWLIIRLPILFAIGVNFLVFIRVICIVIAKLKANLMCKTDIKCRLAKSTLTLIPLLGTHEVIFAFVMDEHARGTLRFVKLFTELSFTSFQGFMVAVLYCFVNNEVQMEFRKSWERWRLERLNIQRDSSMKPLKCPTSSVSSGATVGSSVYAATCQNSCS
Procedure, shortened: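 Cells were fixed with 4% paraformaldehyde, quenched with 2% glycine (pH 7.5), then incubated with peptides for 2 h at 37 °C, washed and blocked with 5% BSA. Absorbance was read at 450 nm. Kd was fitted from peptide concentration versus absorbance.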

Wistar rats [3] = assay: Single-dose glucoregulatory assay (glucose tolerance test); assay type: in vivo; details: calculated from the single dose glucose tolerance test in rats
Protocol: In this assay, the derivatives were administered once, and the blood glucose levels were monitored over 120 h. It was presumed that the apparent half-lives of the derivatives could be obtained by this single-dose glucose tolerance test, which would be beneficial for the determination of the administration frequency in future long-term glucose tolerance tests. Each derivative (300 μg/kg body weight) was subcutaneously injected into fasting male Wistar rats (n = 7 per group) 30 min prior to glucose administration. GLP-1 and saline were injected into the control animals. Rats were given 2 g glucose/kg body weight via intraperitoneal injections. Blood was drawn from the tail vein, and glucose levels were measured using a glucometer 30 min after glucose administration. Chronic glucose injections (2 g/kg body weight) were administered 30 min prior to each blood glucose measurement time point during the 120-h experimental period.

T1 sequence (P27487 whole entry, species assumed): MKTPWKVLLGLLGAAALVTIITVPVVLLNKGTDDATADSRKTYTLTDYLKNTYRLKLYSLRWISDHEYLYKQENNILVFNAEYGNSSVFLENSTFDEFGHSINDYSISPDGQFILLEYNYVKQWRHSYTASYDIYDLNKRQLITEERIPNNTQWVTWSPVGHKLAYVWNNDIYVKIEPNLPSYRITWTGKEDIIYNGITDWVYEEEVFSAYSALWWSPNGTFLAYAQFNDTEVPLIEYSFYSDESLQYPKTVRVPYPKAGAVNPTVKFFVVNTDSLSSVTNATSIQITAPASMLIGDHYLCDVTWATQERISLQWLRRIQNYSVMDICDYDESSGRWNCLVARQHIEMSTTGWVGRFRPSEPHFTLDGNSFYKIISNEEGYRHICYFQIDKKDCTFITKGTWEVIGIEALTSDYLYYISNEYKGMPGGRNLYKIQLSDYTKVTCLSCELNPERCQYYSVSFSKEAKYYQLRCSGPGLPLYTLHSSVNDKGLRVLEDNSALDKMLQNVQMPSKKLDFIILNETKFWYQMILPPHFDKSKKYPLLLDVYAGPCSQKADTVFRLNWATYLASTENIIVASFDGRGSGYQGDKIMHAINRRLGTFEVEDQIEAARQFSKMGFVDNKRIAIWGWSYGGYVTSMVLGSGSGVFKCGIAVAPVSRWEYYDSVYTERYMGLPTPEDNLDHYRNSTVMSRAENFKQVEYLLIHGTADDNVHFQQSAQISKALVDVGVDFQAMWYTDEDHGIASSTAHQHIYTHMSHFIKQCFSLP

## CC[C@H](C)[C@H](NC(=O)[C@H](Cc1ccccc1)NC(=O)[C@H](CCC(=O)NCCCCCCCCCCCC(=O)O)NC(=O)[C@H](CCCCN)NC(=O)[C@H](C)NC(=O)[C@H](C)NC(=O)[C@H](CCC(N)=O)NC(=O)CNC(=O)[C@H](CCC(=O)O)NC(=O)[C@H](CC(C)C)NC(=O)[C@H](Cc1ccc(O)cc1)NC(=O)[C@H](CO)NC(=O)[C@H](CO)NC(=O)[C@@H](NC(=O)[C@H](CC(=O)O)NC(=O)[C@H](CO)NC(=O)[C@@H](NC(=O)[C@H](Cc1ccccc1)NC(=O)[C@@H](NC(=O)CNC(=O)[C@H](CCC(=O)O)NC(=O)[C@H](C)NC(=O)[C@@H](N)Cc1c[nH]cn1)[C@@H](C)O)[C@@H](C)O)C(C)C)C(=O)N[C@@H](C)C(=O)N[C@@H](Cc1c[nH]c2ccccc12)C(=O)N[C@@H](CC(C)C)C(=O)N[C@H](C(=O)N[C@@H](CCCCN)C(=O)NCC(=O)N[C@@H](CCCNC(=N)N)C(=O)NCC(=O)O)C(C)C [compound 24]
DPP IV enzyme; DPP IV 0.1 mg/ml, pH 7.0, in the presence of human serum albumin (2%), peptide 1 mg/ml, 37 °C, GLP-1 (7–37) ELISA
  detectability of full-length peptide at 24 h: still detectable at 24 h
DPP IV enzyme; DPP IV proteolysis solution, 37 °C, 0-24 h, GLP-1 (7–37) ELISA, P < 0.01
  AUC0–24 h, amount of undigested GLP-1 fragments compared with wild-type GLP-1: approximately 3.5 fold
DPP IV enzyme; DPP IV proteolysis solution, 37 °C, GLP-1 (7–37) ELISA, P < 0.01
  AUCGLP-1(7–37) in proteolysis solution compared to native GLP-1: significantly increased
DPP IV enzyme; DPP IV proteolysis, same carbon chain length without free carboxyl group as comparator
  degradation rate against DPP IV compared with compounds 6 and 21, respectively: significantly lower degradation rates
[1]
  increase of circulating amount (AUC GLP-1 (7-37)) compared with native GLP-1: 2.7 fold
Wistar rats [2]
  acute toxicity and blood biochemistry tests: no toxicity was observed
GLP-1 receptor (GLP-1R)
  Kd: 0.0176 ± 0.00176 µM
Wistar rats [3]
  observed half-life: 9.6 h
